According to patent publication US7163923B2, “Peptide deformylase activated prodrugs” (Celmed Oncology (USA), Inc., priority 2001, dated 2007):
In brackets after ≈: the same amount, converted by molar mass. Where two headings read alike, the source gives them in different places.

Test system: S. aureus
Test: MIC susceptibility testing (modified NCCLS, 384-well)
Type: cell-based
Conditions: Staphylococcus aureus, read-out: MIC
Description: The NCCLS (National Committee for Clinical Laboratory Standards), method to determine MIC's of antimicrobial compounds is modified for high-throughput screening. All stocks of tested compounds are prepared in either water or in DMSO depending on solubility. At the highest concentration, DMSO content should not exceed 0.5%. Briefly, twenty 2-fold serial dilutions of test compounds from the highest concentration are made in a 384-well microtiter plate. Each well is inoculated with testing bacteria in broth to a final concentration of approximately 1–1.5×10^6 cells/ml. Bacterial growth is determined by the increase of optical density at 600 nm using a microplate reader (Tecan SpectraFluor Plus). The MIC is defined as the lowest concentration at which bacterial growth (equivalent to visible growth) was inhibited after 16 to 18 hours of incubation at the appropriate temperature required for the bacteria growth.
Using the assay provided above, the potency of NB2046 was compared to triclosan.

CSCCC(NC=O)C(=O)NC(CC(C)C)C(=O)Oc1cc(Cl)ccc1Oc1ccc(Cl)cc1Cl (centres unmarked) [NB2046, 2-(2-formylamino-4-methylsulfanyl-butyrylamino)-4-methyl-pentanoic acid 5-chloro-2-(2,4-dichloro-phenoxy)-phenyl ester]
MIC (ATCC11632, S. aureus ATCC 11632, Exp. #1, Table 3): ≤ 125 ng/mL | MIC (ATCC11632, S. aureus ATCC 11632, Exp. #2, Table 3): ≤ 125 ng/mL | MIC (ATCC 11632 / MSSA, MSSA ATCC 11632, Exp. #1, Table 4): 32000 ng/mL (≈ 56900 nM) | MIC (ATCC 11632 / MSSA, MSSA ATCC 11632, Exp. #2, Table 4): 16000 ng/mL (≈ 28500 nM) | MIC (ATCC 11632 / MSSA, MSSA ATCC 11632, Table 5): 0.977 ng/mL (≈ 1.74 nM) | MIC (ATCC13301, S. aureus ATCC 13301, Exp. #1, Table 3): ≤ 125 ng/mL | MIC (ATCC13301, S. aureus ATCC 13301, Exp. #2, Table 3): ≤ 125 ng/mL | MIC (ATCC 13301 / MSSA, MSSA ATCC 13301, Table 5): 0.015 ng/mL (≈ 0.0267 nM) | MIC (ATCC14154, S. aureus ATCC 14154, Exp. #1, Table 3): ≤ 125 ng/mL | MIC (ATCC14154, S. aureus ATCC 14154, Exp. #2, Table 3): ≤ 125 ng/mL | MIC (ATCC 14154 / MSSA, MSSA ATCC 14154, Table 5): 0.977 ng/mL (≈ 1.74 nM) | MIC (ATCC33591, S. aureus ATCC 33591, Exp. #1, Table 3): ≤ 125 ng/mL | MIC (ATCC33591, S. aureus ATCC 33591, Exp. #2, Table 3): ≤ 125 ng/mL | MIC (ATCC 33591 / MSSA, MSSA ATCC 33591, Table 5): 15.6 ng/mL (≈ 27.8 nM) | MIC (ATCC33592, S. aureus ATCC 33592, Exp. #1, Table 3): ≤ 125 ng/mL | MIC (ATCC33592, S. aureus ATCC 33592, Exp. #2, Table 3): ≤ 125 ng/mL | MIC (ATCC 33592 / MSSA, MSSA ATCC 33592, Table 5): 0.488 ng/mL (≈ 0.868 nM) | MIC (ATCC33593, S. aureus ATCC 33593, Exp. #1, Table 3): ≤ 125 ng/mL | MIC (ATCC33593, S. aureus ATCC 33593, Exp. #2, Table 3): ≤ 125 ng/mL | MIC (ATCC 33593 / MSSA, MSSA ATCC 33593, Table 5): 0.488 ng/mL (≈ 0.868 nM) | MIC (ATCC 33594 / MSSA, MSSA ATCC 33594, Exp. #1, Table 4): ≤ 125 ng/mL | MIC (ATCC 33594 / MSSA, MSSA ATCC 33594, Exp. #2, Table 4): ≤ 125 ng/mL | MIC (ATCC43300, S. aureus ATCC 43300, Exp. #1, Table 3): ≤ 125 ng/mL | MIC (ATCC43300, S. aureus ATCC 43300, Exp. #2, Table 3): ≤ 125 ng/mL | MIC (ATCC 43300 / MSSA, MSSA ATCC 43300, Table 5): 0.977 ng/mL (≈ 1.74 nM) | MIC (ATCC700260, S. aureus ATCC 700260, Exp. #1, Table 3): ≤ 125 ng/mL | MIC (ATCC700260, S. aureus ATCC 700260, Exp. #2, Table 3): ≤ 125 ng/mL | MIC (ATCC 700260 / MSSA, MSSA ATCC 700260, Exp. #1, Table 4): ≤ 125 ng/mL | MIC (ATCC 700260 / MSSA, MSSA ATCC 700260, Exp. #2, Table 4): 4000 ng/mL (≈ 7120 nM) | MIC (ATCC 700260 / MSSA, MSSA ATCC 700260, Table 5): 0.031 ng/mL (≈ 0.0552 nM) | MIC (ATCC700698, S. aureus ATCC 700698, Exp. #1, Table 3): ≤ 125 ng/mL | MIC (ATCC700698, S. aureus ATCC 700698, Exp. #2, Table 3): ≤ 125 ng/mL | MIC (ATCC 700698 / MSSA, MSSA ATCC 700698, Table 5): 3.91 ng/mL (≈ 6.95 nM) | MIC (ATCC700699, S. aureus ATCC 700699, Exp. #1, Table 3): 16000 ng/mL (≈ 28500 nM) | MIC (ATCC700699, S. aureus ATCC 700699, Exp. #2, Table 3): 8000 ng/mL (≈ 14200 nM) | MIC (ATCC 700699 / MRSA, MRSA ATCC 700699, Exp. #1, Table 4): 32000 ng/mL (≈ 56900 nM) | MIC (ATCC 700699 / MRSA, MRSA ATCC 700699, Exp. #2, Table 4): 32000 ng/mL (≈ 56900 nM) | MIC (ATCC 700699 / MSSA, MSSA ATCC 700699, Table 5): ≥ 4000 ng/mL | MIC (ATCC700787, S. aureus ATCC 700787, Exp. #1, Table 3): ≤ 125 ng/mL | MIC (ATCC700787, S. aureus ATCC 700787, Exp. #2, Table 3): ≤ 125 ng/mL | MIC (ATCC 700787 / MSSA, MSSA ATCC 700787, Table 5): 7.81 ng/mL (≈ 13.9 nM) | MIC (ATCC700788, S. aureus ATCC 700788, Exp. #1, Table 3): ≤ 125 ng/mL | MIC (ATCC700788, S. aureus ATCC 700788, Exp. #2, Table 3): ≤ 125 ng/mL | MIC (ATCC 700788 / MSSA, MSSA ATCC 700788, Table 5): 62.5 ng/mL (≈ 111 nM) | MIC (ATCC700789, S. aureus ATCC 700789, Exp. #1, Table 3): ≤ 125 ng/mL | MIC (ATCC700789, S. aureus ATCC 700789, Exp. #2, Table 3): ≤ 125 ng/mL | MIC (ATCC 700789 / MSSA, MSSA ATCC 700789, Table 5): 15.6 ng/mL (≈ 27.8 nM)
